Where two headings read alike, the source gives them in different places.
Test system: HT-29 cells
Assay: HT29 Cells 0FBS Assay In Vitro (TNF-α/SMAC mimetic/zVAD-FMK induced necroptosis, CellTiter-Glo cell viability)
Type: cell-based
Conditions: Homo sapiens, read-out: Cell activity (EC50) of Compounds 117-281
Procedure, shortened: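 Viability was measured by ATP luminescence (CellTiter-Glo) after 20 h at 37° C of compound exposure in 10-point, 1:3 dilutions. Necroptosis in FBS-free HT-29 cultures was driven by a TNF-α (10 ng/ml), SMAC mimetic (6 μM) and zVAD-FMK (10 μM) cocktail. EC50 values are geometric means from duplicate curves.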

[1] = HT-29 cells, FBS free medium, TNF-α (10 ng/ml), SMAC mimetic (6 uM), zVAD-FMK (10 μM), 20 hours, geometric mean EC50

Cc1nn(C2COC2)c(C)c1-c1cc(OC2CN(C(=O)N3N=CC[C@H]3c3cc(F)cc(F)c3)C2)c(F)cn1 [compound 130, (S)-(5-(3,5-difluorophenyl)-4,5-dihydro-1H-pyrazol-1-yl)(3-((2-(3,5-dimethyl-1-(oxetan-3-yl)-1H-pyrazol-4-yl)-5-fluoropyridin-4-yl)oxy)azetidin-1-yl)methanone]
EC50 [1]: 0.1 to 100 nM

Cc1nn(C2CNC2)c(C)c1-c1cc(OC2CN(C(=O)N3N=CC[C@H]3c3cc(F)cc(F)c3)C2)c(F)cn1 [compound 131, (S)-(3-((2-(1-(azetidin-3-yl)-3,5-dimethyl-11H-pyrazol-4-yl)-5-fluoropyridin-4-yl)oxy)azetidin-1-yl)(5-(3,5-difluorophenyl)-4,5-dihydro-1H-pyrazol-1-yl)methanone]
EC50 [1]: 0.1 to 100 nM

Cc1nn(CC2CC2)c(C)c1-c1cc(OC2CN(C(=O)N3N=CC[C@H]3c3cc(F)cc(F)c3)C2)c(F)cn1 [compound 132, (S)-(3-((2-(1-(cyclopropylmethyl)-3,5-dimethyl-1H-pyrazol-4-yl)-5-fluoropyridin-4-yl)oxy)azetidin-1-yl)(5-(3,5-difluorophenyl)-4,5-dihydro-1H-pyrazol-1-yl)methanone]
EC50 [1]: 0.1 to 100 nM

CC(C)NC(=O)c1cnn(C)c1-c1cc(OC2CN(C(=O)N3N=CC[C@H]3c3cc(F)cc(F)c3)C2)c(F)cn1 [compound 133, (S)-5-(4-((1-(5-(3,5-difluorophenyl)-4,5-dihydro-1H-pyrazole-1-carbonyl)azetidin-3-yl)oxy)-5-fluoropyridin-2-yl)-N-isopropyl-1-methyl-1H-pyrazole-4-carboxamide]
EC50 [1]: 0.1 to 100 nM

Cn1ncc(C(=O)NC2CC2)c1-c1cc(OC2CN(C(=O)N3N=CC[C@H]3c3cc(F)cc(F)c3)C2)c(F)cn1 [compound 134, (S)—N-cyclopropyl-5-(4-((1-(5-(3,5-difluorophenyl)-4,5-dihydro-1H-pyrazole-1-carbonyl)azetidin-3-yl)oxy)-5-fluoropyridin-2-yl)-1-methyl-1H-pyrazole-4-carboxamide]
EC50 [1]: 0.1 to 100 nM

CC(=O)Nc1cc(-c2cc(OC3CN(C(=O)N4N=CC[C@H]4c4cc(F)cc(F)c4)C3)c(F)cn2)n(C)n1 [compound 135]
EC50 (HT-29, 20 h): 0.1 to 100 nM

CC(=O)N(C(C)=O)c1cc(-c2cc(OC3CN(C(=O)N4N=CC[C@H]4c4cc(F)cc(F)c4)C3)c(F)cn2)n(C)n1 [compound 136, (S)—N-acetyl-N-(5-(4-((1-(5-(3,5-difluorophenyl)-4,5-dihydro-1H-pyrazole-1-carbonyl)azetidin-3-yl)oxy)-5-fluoropyridin-2-yl)-1-methyl-1H-pyrazol-3-yl)acetamide]
EC50 [1]: 0.1 to 100 nM

Cn1nc(NC(=O)C2CC2)cc1-c1cc(OC2CN(C(=O)N3N=CC[C@H]3c3cc(F)cc(F)c3)C2)c(F)cn1 [compound 137, (S)—N-(5-(4-((1-(5-(3,5-difluorophenyl)-4,5-dihydro-1H-pyrazole-1-carbonyl)azetidin-3-yl)oxy)-5-fluoropyridin-2-yl)-1-methyl-1H-pyrazol-3-yl)cyclopropanecarboxamide]
EC50 [1]: 0.1 to 100 nM

Cc1nn(-c2cc(OC3CN(C(=O)N4N=CC[C@H]4c4cc(F)cc(F)c4)C3)c(F)cn2)c(C)c1NC(=O)C1CCOCC1 [compound 138]
EC50 [1]: 0.1 to 100 nM

Cc1nn(-c2cc(OC3CN(C(=O)N4N=CC[C@H]4c4cc(F)cc(F)c4)C3)c(F)cn2)c(C)c1NC(=O)C1CC1 [compound 139, (S)—N-(1-(4-((1-(5-(3,5-difluorophenyl)-4,5-dihydro-1H-pyrazole-1-carbonyl)azetidin-3-yl)oxy)-5-fluoropyridin-2-yl)-3,5-dimethyl-1H-pyrazol-4-yl)cyclopropanecarboxamide]
EC50 [1]: 0.1 to 100 nM

CC(=O)Nc1c(C)nn(-c2cc(OC3CN(C(=O)N4N=CC[C@H]4c4cc(F)cc(F)c4)C3)c(F)cn2)c1C [compound 140, (S)—N-(1-(4-((1-(5-(3,5-difluorophenyl)-4,5-dihydro-1H-pyrazole-1-carbonyl)azetidin-3-yl)oxy)-5-fluoropyridin-2-yl)-3,5-dimethyl-1H-pyrazol-4-yl)acetamide]
EC50 [1]: 0.1 to 100 nM

CC(C)NC(=O)Nc1cnn(C)c1-c1cc(OC2CN(C(=O)N3N=CC[C@H]3c3cc(F)cc(F)c3)C2)c(F)cn1 [compound 141, (S)-1-(5-(4-((1-(5-(3,5-difluorophenyl)-4,5-dihydro-1H-pyrazole-1-carbonyl)azetidin-3-yl)oxy)-5-fluoropyridin-2-yl)-1-methyl-1H-pyrazol-4-yl)-3-isopropylurea]
EC50 [1]: 0.1 to 100 nM

CNC(=O)Nc1cnn(C)c1-c1cc(OC2CN(C(=O)N3N=CC[C@H]3c3cc(F)cc(F)c3)C2)c(F)cn1 [compound 142, (S)-1-(5-(4-((1-(5-(3,5-difluorophenyl)-4,5-dihydro-1H-pyrazole-1-carbonyl)azetidin-3-yl)oxy)-5-fluoropyridin-2-yl)-1-methyl-11H-pyrazol-4-yl)-3-methylurea]
EC50 [1]: 0.1 to 100 nM

Cc1ncc(C#N)n1-c1cc(OC2CN(C(=O)N3N=CC[C@H]3c3cc(F)cc(F)c3)C2)c(F)cn1 [compound 143, (S)-1-(4-((1-(5-(3,5-difluorophenyl)-4,5-dihydro-1H-pyrazole-1-carbonyl)azetidin-3-yl)oxy)-5-fluoropyridin-2-yl)-2-methyl-1H-imidazole-5-carbonitrile]
EC50 [1]: 0.1 to 100 nM

Cc1c(NC(=O)C2CC2)nn(C)c1-c1cc(OC2CN(C(=O)N3N=CC[C@H]3c3cc(F)cc(F)c3)C2)c(F)cn1 [compound 144, (S)—N-(5-(4-((1-(5-(3,5-difluorophenyl)-4,5-dihydro-1H-pyrazole-1-carbonyl)azetidin-3-yl)oxy)-5-fluoropyridin-2-yl)-1,4-dimethyl-1H-pyrazol-3-yl)cyclopropanecarboxamide]
EC50 [1]: 0.1 to 100 nM

Cc1c(NCC(N)=O)nn(C)c1-c1cc(OC2CN(C(=O)N3N=CC[C@H]3c3cc(F)cc(F)c3)C2)c(F)cn1 [compound 145, (S)-2-((5-(4-((1-(5-(3,5-difluorophenyl)-4,5-dihydro-1H-pyrazole-1-carbonyl)azetidin-3-yl)oxy)-5-fluoropyridin-2-yl)-1,4-dimethyl-1H-pyrazol-3-yl)amino)acetamide]
EC50 [1]: 0.1 to 100 nM

Cn1ccnc1-c1cc(OC2CN(C(=O)N3N=CC[C@H]3c3cc(F)cc(F)c3)C2)c(F)cn1 [compound 146, (S)-(5-(3,5-difluorophenyl)-4,5-dihydro-1H-pyrazol-1-yl)(3-((5-fluoro-2-(1-methyl-1H-imidazol-2-yl)pyridin-4-yl)oxy)azetidin-1-yl)methanone]
EC50 [1]: 0.1 to 100 nM

Cc1ccc(C)n1-c1cc(OC2CN(C(=O)N3N=CC[C@H]3c3cc(F)cc(F)c3)C2)c(F)cn1 [compound 147, (S)-(5-(3,5-difluorophenyl)-4,5-dihydro-1H-pyrazol-1-yl)(3-((2-(2,5-dimethyl-1H-pyrrol-1-yl)-5-fluoropyridin-4-yl)oxy)azetidin-1-yl)methanone]
EC50 [1]: 0.1 to 100 nM

Cc1nn(-c2cc(OC3CN(C(=O)N4N=CC[C@H]4c4cc(F)cc(F)c4)C3)c(F)cn2)c(C)c1CO [compound 148, (S)-(5-(3,5-difluorophenyl)-4,5-dihydro-1H-pyrazol-1-yl)(3-((5-fluoro-2-(4-(hydroxymethyl)-3,5-dimethyl-1H-pyrazol-1-yl)pyridin-4-yl)oxy)azetidin-1-yl)methanone]
EC50 [1]: 0.1 to 100 nM

Cn1ncc(C(N)=O)c1-c1ccc(F)c(OC2CN(C(=O)N3N=CC[C@H]3c3cc(F)cc(F)c3)C2)n1 [compound 149, (S)-5-(6-((1-(5-(3,5-difluorophenyl)-4,5-dihydro-1H-pyrazole-1-carbonyl)azetidin-3-yl)oxy)-5-fluoropyridin-2-yl)-1-methyl-1H-pyrazole-4-carboxamide]
EC50 [1]: 0.1 to 100 nM

Cc1c(C#N)nn(C)c1-c1cc(OC2CN(C(=O)N3N=CC[C@H]3c3cc(F)cc(F)c3)C2)c(F)cn1 [compound 150, (S)-5-(4-((1-(5-(3,5-difluorophenyl)-4,5-dihydro-1H-pyrazole-1-carbonyl)azetidin-3-yl)oxy)-5-fluoropyridin-2-yl)-1,4-dimethyl-1H-pyrazole-3-carbonitrile]
EC50 [1]: 0.1 to 100 nM

Cc1nn(-c2cc(OC3CN(C(=O)N4N=CC[C@H]4c4cc(F)cc(F)c4)C3)c(F)cn2)c(C)c1C#N [compound 151, (S)-1-(4-((1-(5-(3,5-difluorophenyl)-4,5-dihydro-1H-pyrazole-1-carbonyl)azetidin-3-yl)oxy)-5-fluoropyridin-2-yl)-3,5-dimethyl-1H-pyrazole-4-carbonitrile]
EC50 [1]: 0.1 to 100 nM

Cc1nc(C)n(-c2cc(OC3CN(C(=O)N4N=CC[C@H]4c4cc(F)cc(F)c4)C3)c(F)cn2)c1C [compound 152, (S)-(5-(3,5-difluorophenyl)-4,5-dihydro-1H-pyrazol-1-yl)(3-((5-fluoro-2-(2,4,5-trimethyl-11H-imidazol-1-yl)pyridin-4-yl)oxy)azetidin-1-yl)methanone]
EC50 [1]: 0.1 to 100 nM

CCOC(=O)c1[nH]c(C)c(-c2cc(OC3CN(C(=O)N4N=CC[C@H]4c4cc(F)cc(F)c4)C3)c(F)cn2)c1C [compound 153, Ethyl (S)-4-(4-((1-(5-(3,5-difluorophenyl)-4,5-dihydro-1H-pyrazole-1-carbonyl)azetidin-3-yl)oxy)-5-fluoropyridin-2-yl)-3,5-dimethyl-1H-pyrrole-2-carboxylate]
EC50 [1]: 0.1 to 100 nM

CNc1cc(-c2cc(OC3CN(C(=O)N4N=CC[C@H]4c4cc(F)cc(F)c4)C3)c(F)cn2)n(C)n1 [compound 154]
EC50 [1]: 0.1 to 100 nM

COCc1c(C)nn(-c2cc(OC3CN(C(=O)N4N=CC[C@H]4c4cc(F)cc(F)c4)C3)c(F)cn2)c1C [compound 155, (S)-(5-(3,5-difluorophenyl)-4,5-dihydro-1H-pyrazol-1-yl)(3-((5-fluoro-2-(4-(methoxymethyl)-3,5-dimethyl-1H-pyrazol-1-yl)pyridin-4-yl)oxy)azetidin-1-yl)methanone]
EC50 [1]: 0.1 to 100 nM
